Assay results from patent US7183095B2, “Cell culture system for synthesis of infectious hepatitis C virus” (priority 2001, dated 2007).

System: HCV type 1a (pCV-H77C) in Huh-7 cells
Test: Cell surface expression of HCV envelope proteins E1 and E2 by flow cytometry (FACS) in transfected Huh-7 cells
Type: cell-based, hepatitis C virus
Conditions: Huh-7 cells transfected with type 1a pCVH77C and AR3126, interferon treatment
Description: Transfected or supernatant treated Huh-7 cells were stained with anti-E1 or anti-E2 antibodies using procedures similar to those described previously by Koka et al. A goat anti-mouse IgG1 antibody conjugated to PE was used for labeling of the primary antibody. Flow cytometric analyses were performed on a Becton-Dickinson FACSCAN.
Huh-7 cells (1×10^7) were transfected/co-transfected with plasmid DNA at 60–70% confluency in T-75 tissue culture flasks. In some experiments transfection was carried out in 6-well plates (3×10^6 cells per well and 2 μg of each plasmid). Ten μgs of each plasmid was added to 0.45 ml of serum-free RPMI and mixed with 180 μl of superfect transfection reagent from Quiagen. The mixture was incubated at room temperature for 10 min after which 3 ml of RPMI containing 10% fetal bovine serum was then added. The mixture was then layered on Huh-7 cells and incubated at 37° C. for 6 h. The cell culture medium was changed regularly until the cells were harvested for labeling with appropriate antibodies or RNA isolation.
Viral protein synthesis was monitored by assaying cell surface expression of viral envelope proteins E1 and E2 by fluorescent activated cell sorting (FACS). Cell surface expression of HCV E1 and E2 was determined by flow cytometry following a procedure as previously described. […]

**Q.** For gamma: interferon gamma, which E1/E2 expression is on record?
**A.** inhibited E1/E2 expression only marginally
